This is an account of results in US9096539B2, “Substituted 4,5-dihydro-2H-benzo[e]indazole-9-carboxylates for the treatment of diabetes and related disorders” (Council of Scientific & Industrial Research, priority 2012, dated 2015).

Like-named read-outs stand apart in the source and are kept apart here.

Data set [1] deals with T1, human recombinant PTP1B enzyme (Homo sapiens, UniProt P18031).
T1 construct: purchased Enzo Life Sciences, USA BML-AK 822
T1 sequence (P18031 1-322 limits assumed): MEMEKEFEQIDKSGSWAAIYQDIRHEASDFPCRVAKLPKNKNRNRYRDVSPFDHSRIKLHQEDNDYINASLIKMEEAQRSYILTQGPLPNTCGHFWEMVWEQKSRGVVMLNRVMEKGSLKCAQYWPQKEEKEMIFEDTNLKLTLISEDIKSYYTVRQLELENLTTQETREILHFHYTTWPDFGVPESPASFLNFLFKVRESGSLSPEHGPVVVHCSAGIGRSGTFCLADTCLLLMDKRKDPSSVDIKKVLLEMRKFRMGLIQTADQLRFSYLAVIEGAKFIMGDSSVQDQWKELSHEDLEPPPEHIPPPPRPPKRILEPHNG
As to the kind of experiment: Protein tyrosine phosphatase-1B assay (colorimetric kit BML-AK 822). It counts as biochemical. The conditions noted are these: read-out: % Inhibition (PTP-1B). As for the experimental part:
Assay was done according to the Kit manufacturers protocol, in brief the reaction was carried out in 96 well flat bottomed microtiter plate by the addition of assay buffer, solution of test compounds and diluted PTP1B enzyme. Enzyme reaction was initiated by addition of 50 μl of warmed 2× substrate then incubated the plate at 30° C. for 30 min. After incubation for 30 min. Reaction was terminated by addition of 25 μl of biomol red reagent and mixed thoroughly by repeated pipetting. […] Volumes and dilution of other component were accordingly as instructed in the manual provided in the kit. PTP1B phosphatase acting on the phosphopeptide substrate and release phosphate. The detection of free phosphate released is based on classic Malachite green assay. After adding biomol red to reaction wells after 30 minutes of incubation as described earlier the plate was incubated for another 20 min to develop the colour. Absorbance was recorded at 620 nm. on a microplate reader.

Setting [2] is: Table 5, evaluated at 10 μM concentration.

As a reminder, the melting point is the temperature, or range, at which the solid turns liquid. Broadly, the inhibition is how much of the control response was suppressed. `COC(=O)c1c(SC)cc(-c2ccccc2)c2c1-c1cn(-c3ccccc3)nc1CC2` [compound 4, methyl 8-(methylthio)-2,6-diphenyl-4,5-dihydro-2H-benzo[e]indazole-9-carboxylate]: the melting point was in the range of 173 to 175 °C. Also, the inhibition at 10 µM in data set [1] (setting [2]) was found to be 16.4%.

As for `COC(=O)c1c(SC)cc(-c2cccs2)c2c1-c1cn(-c3ccccc3)nc1CC2` [compound 7, methyl 8-(methylthio)-2-phenyl-6-(thiophen-2-yl)-4,5-dihydro-2H-benzo[e]indazole-9-carboxylate], the melting point is 174 to 176 °C. Further, in data set [1] (setting [2]), the inhibition at 10 µM came out at 12.7%.

In turn, `COC(=O)c1c(SC)cc(-c2ccc(F)cc2)c2c1-c1cn(-c3ccccc3)nc1CC2` [compound 8, methyl 6-(4-fluorophenyl)-8-(methylthio)-2-phenyl-4,5-dihydro-2H-benzo[e]indazole-9-carboxylate] came in with a melting point of 182 to 184 °C. Further, the inhibition at 10 µM in data set [1] (setting [2]) was found to be 14.6%.

Regarding `COC(=O)c1c(SC)cc(-c2ccc3ccc4cccc5ccc2c3c45)c2c1-c1cn(-c3ccccc3)nc1CC2` [compound 9, methyl 8-(methylthio)-2-phenyl-6-(pyren-1-yl)-4,5-dihydro-2H-benzo[e]indazole-9-carboxylate], the melting point is 174 to 176 °C. Also, the inhibition at 10 µM in data set [1] came out at 10.7%.

With `COC(=O)c1c(S(C)(=O)=O)cc(-c2ccc(F)cc2)c2c1-c1cn(-c3ccccc3)nc1CC2` [compound 10, methyl 6-(4-fluorophenyl)-8-(methylsulfonyl)-2-phenyl-4,5-dihydro-2H-benzo[e]indazole-9-carboxylate], the melting point was in the range of 245 to 247 °C. Further, the inhibition at 10 µM in data set [1] (setting [2]) worked out at 1.52%.

Take `COC(=O)c1c(S(C)(=O)=O)cc(-c2cccc3ccccc23)c2c1-c1cn(-c3ccccc3)nc1CC2` [compound 11, methyl 8-(methylsulfonyl)-6-(naphthalen-1-yl)-2-phenyl-4,5-dihydro-2H-benzo[e]indazole-9-carboxylate]: the melting point lay within 204 to 206 °C. Besides, in data set [1] (setting [2]), the inhibition at 10 µM is 18.8%.

With `COC(=O)c1c(S(C)(=O)=O)cc(-c2ccc(C)cc2)c2c1-c1cn(-c3ccccc3)nc1CC2` [compound 12, methyl 8-(methylsulfonyl)-2-phenyl-6-(p-tolyl)-4,5-dihydro-2H-benzo[e]indazole-9-carboxylate], the melting point lay within 228 to 230 °C. The inhibition at 10 µM in data set [1] (setting [2]) turned out to be 26.4%.
